According to patent US20240081326A1, “Use of a Biobased Composition Comprising Ferulated Chitosan as a Pesticide Safener” (FYTEKO SA, priority 2020, published 2024):

System: Lemna minor
Experiment: Lemna minor in vitro relative growth rate and survival with herbicide Profoxydim
Format: in vivo
Conditions: one week; for relative growth rate (RGR) of Lemna minor plants, substance alone: 10 mg/L in Hoagland medium
Description: The experiment was carried out in Lemna minor growing under in vitro conditions. A stock culture of Lemna minor was maintained on modified Hoagland medium in a controlled environment. […] An experiment was conducted, using fronds free from any visible chlorosis which were taken from the stock cultures and exposed to diverse treatments. For each treatment, six repetitions with three fronds per repetition as the initial frond number were used. […] The multiplate was covered with a transparent cover to prevent evaporation. The relative growth was calculated after one week of incubation in the described conditions, and the survival rate was evaluated.

Row | SMILES | relative growth rate (RGR) of Lemna minor plants, substance alone | protective effect on relative growth rate in combination with the herbicide Profoxydim (10 mg/L with 10 mg/L Profoxydim)
1 | CCCC(=NOCC(C)Oc1ccc(Cl)cc1)C1=C(O)CC(C2CCCSC2)CC1=O (stereo not drawn) [Profoxydim] | drastically reduced the RGR | 
2 | COc1cc(/C=C/C(=O)O)ccc1O [ferulic acid] | hindering Lemna minor growth | Neither chitosan nor ferulic acid in combination with the herbicide showed this protective effect
